What was measured:
[1] = molecular target: bovine submaxillary mucin (BSM) (bovine); test: BLI; biotinylated BSM loaded on streptavidin pins; Abp2DRBD constructs at 2.07 µM in 1× PBS + 2% BSA + 0.05% Tween-20; 300 s association, 300 s dissociation; end time point of association compared
[2] = molecular target: bovine submaxillary mucin (BSM); test: BLI; conditions: parent: est. 0.65; read off a plot
Abp2DRBD = molecular target: T1, Abp2DRBD (Acinetobacter baumannii, UniProt A0A7U3Y091); test: glycan microarray (CFG v5.[…]), biotinylated protein; format: binding; conditions: protein 50 μg/mL; glycan immobilised through spacer; labelled protein
T1 construct: gene ACICU_01810

Abp1DRBD [3] = molecular target: T2, Abp1DRBD (Acinetobacter baumannii, UniProt A0A219C937); test: glycan microarray (CFG v5.[…]), biotinylated protein; format: binding; conditions: protein 50 μg/mL; glycan immobilised through spacer; labelled protein
T2 construct: gene fimA_2

Abp1DRBD [4] = molecular target: T2, Abp1DRBD; test: glycan microarray (CFG v5.[…]), biotinylated protein; format: binding; conditions: protein 50 μg/mL; glycan immobilised through spacer; labelled protein; remark: listed apart in the source

Substance | Abp2DRBD / Average RFU (Abp2DRBD) | Abp1DRBD / Average RFU (Abp1DRBD [3]) | other results
Abp2D receptor-binding domain (ACICU) R102A (domain or fragment) |  |  | percent reduction of binding relative to Abp2DRBD WT [1]: 70%
Abp2D receptor-binding domain (ACICU) Y141A (domain or fragment) |  |  | percent reduction of binding relative to Abp2DRBD WT [1]: 90%
Abp2D receptor-binding domain from ACICU (Abp2DRBD), wild type R86A |  |  | response [2]: 0.66 nm
Abp2D receptor-binding domain from ACICU (Abp2DRBD), wild type R86E |  |  | response [2]: 0.02 nm
Abp2D receptor-binding domain from ACICU (Abp2DRBD), wild type Y100A |  |  | response [2]: 0.46 nm
Fuca1-2Galb1-4(Fuca1-3)GlcNAcb1-2Mana1-6(Fuca1-2Galb1-4(Fuca1-3)GlcNAcb1-2Mana1-3)Manb1-4GlcNAcb1-4GlcNAb-Sp20 [compound 356] | 58,018 ± 2,343 RFU | 2,867 ± 192 RFU | 
Fuca1-2Galb1-4(Fuca1-3)GlcNAcb1-2Mana1-6(Fuca1-2Galb1-4(Fuca1-3)GlcNAcb1-4(Fuca1-2Galb1-4(Fuca1-3)GlcNAcb1-2)Mana1-3)Manb1-4GlcNAcb1-4GlcNAcb-Sp12 [compound 439] | 30,667 ± 511 RFU | 3,373 ± 55 RFU | 
Galb1-3GlcNAcb1-3Galb1-3GlcNAcb-Sp0 [compound 285] | 28,674 ± 4,137 RFU | 3,392 ± 319 RFU | 
Galb1-4(Fuca1-3)GlcNAcb1-2Mana1-6(Galb1-4(Fuca1-3)GlcNAcb1-2Mana1-3)Manb1-4GlcNAcb1-4(Fuca1-6)GlcNAcb-Sp22 [compound 412] | 48,357 ± 11,791 RFU | 2,932 ± 266 RFU | 
GlcNAcb1-3Galb1-4GlcNAcb1-2Mana1-6(GlcNAcb1-3Galb1-4GlcNAcb1-2Mana1-3)Manb1-4GlcNAcb1-4GlcNAcb-Sp12 [compound 531] | 59,914 ± 1,963 RFU | 6,977 ± 1,001 RFU | 
GlcNAcb1-3Galb1-4GlcNAcb1-3Galb1-4GlcNAcb1-2Mana1-6(GlcNAcb1-3Galb1-4GlcNAcb1-3Galb1-4GlcNAcb1-2Mana1-3)Manb1-4GlcNAcb1-4GlcNAcb-Sp12 [compound 535] | 34,056 ± 4,827 RFU | 4,735 ± 602 RFU | 
GlcNAcb1-3Galb1-4GlcNAcb1-6(GlcNAcb1-3Galb1-4GlcNAcb1-2)Mana1-6(GlcNAcb1-3Galb1-4GlcNAcb1-2Man a1-3)Manb1-4GlcNAcb1-4GlcNAc-Sp24 [compound 545] | 39,436 ± 6,368 RFU | 3,159 ± 350 RFU | 
Neu5Aca2-3Galb1-4GlcNAcb1-2Mana-Sp0 [compound 470] | 53,822 ± 4,116 RFU | 6,747 ± 133 RFU | 
Neu5Aca2-3Galb1-4GlcNAcb1-3Galb1-4GlcNAcb1-3Galb1-4GlcNAcb1-2Mana1-6(Neu5Aca2-3Galb1-4GlcNAcb1-3Galb1-4GlcNAcb1-3Galb1-4GlcNAcb1-2Mana1-3)Manb1-4GlcNAcb1-4GlcNAcb-Sp12 [compound 582] |  |  | Abp1DRBD / SD (Abp1DRBD [4]): 9,786 ± 418 RFU
Neu5Aca2-6Galb1-4GlcNAcb1-6GalNAca-Sp14 [compound 472] | 54,517 ± 1,322 RFU | 4,714 ± 450 RFU | 

From publication PMC9942807, “Structure–function correlates of fibrinogen binding by Acinetobacter adhesins critical in catheter-associated urinary tract infections” (Proceedings of the National Academy of Sciences of the …, 2023)
